Patent US20190284168A1, “PYRAZOLE DERIVATIES AS SGC STIMULATORS” (IRONWOOD PHARMACEUTICALS, INC., priority 2014, published 2019)

Molecular target: T1, sGC enzyme (Homo sapiens, UniProt Q02108+Q02153)
T1 construct: host or cells: HEK293 cells expressing GloSensor 40F cGMP
T1 sequence (Q02153 1-619): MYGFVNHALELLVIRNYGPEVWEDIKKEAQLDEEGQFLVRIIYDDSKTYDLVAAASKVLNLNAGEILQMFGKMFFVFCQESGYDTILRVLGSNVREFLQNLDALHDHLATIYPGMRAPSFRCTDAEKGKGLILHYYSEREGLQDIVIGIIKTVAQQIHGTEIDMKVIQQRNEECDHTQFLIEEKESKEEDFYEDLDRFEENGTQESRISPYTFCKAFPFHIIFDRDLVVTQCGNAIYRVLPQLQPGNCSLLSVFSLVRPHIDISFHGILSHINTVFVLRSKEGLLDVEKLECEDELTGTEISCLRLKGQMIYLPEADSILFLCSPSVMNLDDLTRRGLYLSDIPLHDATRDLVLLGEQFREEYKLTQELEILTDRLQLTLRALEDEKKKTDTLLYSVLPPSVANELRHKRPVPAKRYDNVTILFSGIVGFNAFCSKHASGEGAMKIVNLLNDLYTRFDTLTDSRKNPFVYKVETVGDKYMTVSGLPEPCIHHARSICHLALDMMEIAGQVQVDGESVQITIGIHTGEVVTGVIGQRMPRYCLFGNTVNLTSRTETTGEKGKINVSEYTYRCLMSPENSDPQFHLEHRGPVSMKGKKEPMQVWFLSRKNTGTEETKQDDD
T1 sequence (Q02108 1-690): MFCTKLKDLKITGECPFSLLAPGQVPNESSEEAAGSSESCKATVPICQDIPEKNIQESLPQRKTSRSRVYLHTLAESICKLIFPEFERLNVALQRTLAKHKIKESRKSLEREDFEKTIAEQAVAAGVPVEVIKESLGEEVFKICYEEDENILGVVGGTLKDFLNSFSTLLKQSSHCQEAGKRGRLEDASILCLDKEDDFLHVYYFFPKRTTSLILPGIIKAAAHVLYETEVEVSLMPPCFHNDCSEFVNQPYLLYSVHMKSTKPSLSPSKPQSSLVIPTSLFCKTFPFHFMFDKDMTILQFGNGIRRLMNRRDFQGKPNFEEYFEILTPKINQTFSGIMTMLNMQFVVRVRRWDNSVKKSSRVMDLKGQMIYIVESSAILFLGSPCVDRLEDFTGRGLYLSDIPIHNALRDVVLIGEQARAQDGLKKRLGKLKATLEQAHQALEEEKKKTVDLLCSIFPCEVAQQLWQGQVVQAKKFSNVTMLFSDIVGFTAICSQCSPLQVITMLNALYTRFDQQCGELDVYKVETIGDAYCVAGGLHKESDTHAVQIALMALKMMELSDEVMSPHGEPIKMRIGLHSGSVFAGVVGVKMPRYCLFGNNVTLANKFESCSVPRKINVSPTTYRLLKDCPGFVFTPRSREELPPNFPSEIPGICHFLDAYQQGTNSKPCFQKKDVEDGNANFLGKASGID
Assay: cGMP GloSensor cell-based assay, 384-well format
Details: read-out: sGC_HEK_GloSensor EC50/IC50 Abs (Norm) (nM) Binned (~)
Description: Human embryonic kidney cells (HEK293) cells expressing GloSensor™ 40F cGMP (Part No: CS182801, Promega) were used to evaluate the activity of test compounds. The luminescent biosensors (engineered luciferase) that were incorporated into these cells detect cGMP formed by the compounds stimulating the sGC enzyme and emit luminescence.
cGMP GloSensor cells were maintained in Dulbecco's Modification of Eagle's Medium (DMEM) supplemented with fetal bovine serum (FBS) (10% final) and hygromycine (200 ug/ml). The day before assay, cells were plated in DMEM with 10% FBS in a 50 μL volume at a density of 1.5×10^4 cells/well in a poly-D-lysine coated 384-well flat white-bottom plate (Corning Cat No 35661). Cells were incubated overnight at 37° C. in a humidified chamber with 5% CO2. The next day, medium was removed and cells were replaced with 40 ul/well of GloSensor™, 2 mM (Promega Cat No E1291). Cells were treated for 90 minutes at 25° C. to allow the substrate to equilibrate in the cells. Test compounds and Diethylenetriamine NONOate (DETA-NONOate) was diluted to 3 mM (20×) in serum-free CO2 independent medium and serially diluted at 4× dilutions to create 5× dose curve from which 10 ul was added to the wells (x μM concentration for test compound solution and 10 μM concentration for DETA-NONOate solution; wherein x is one of the following final concentrations). • 30000 nM • 7500 nM • 1875 nM • 468.75 nM • 117.19 nM • 29.29 nM • 7.32 nM • 1.83 nM • 0.46 nM • 0.114 nM • 0.029 nM
For the kinetics studies, luminescense was measured right away for 0.2 sec per well with Envision (Perkin Elmer model No). For endpoint SAR screening, data were collected after 55 min incubation at room temperature.
Data analysis was carried out as indicated above in Example 2A.

Row | EC50 [nM] | Compound
1 | < 100 | CN(CC(O)c1ccc(O)c(O)c1)c1nc(-c2cc(-c3ccon3)n(Cc3ccccc3F)n2)ncc1F (centres unmarked) [Compound 168, 4-(2-((5-fluoro-2-(1-(2-fluorobenzyl)-5-(isoxazol-3-yl)-1H-pyrazol-3-yl)pyrimidin-4-yl)(methyl)amino)-1-hydroxyethyl)benzene-1,2-diol]
2 | > 1000 | Cn1cc(Cn2nc(-c3ncc(F)c(O)n3)cc2-c2ccon2)cn1 [Compound 186]
3 | > 1000 | Nc1ccnc(-c2cc(-c3ccon3)n(Cc3ncccc3F)n2)n1 [Compound 145]
4 | > 1000 | Cn1nccc1Cn1nc(-c2ncc(F)c(O)n2)cc1-c1ccon1 [Compound 212]
5 | > 1000 | O=c1[nH]c(-c2cc(-c3ccon3)n(CCC(F)(F)C(F)(F)F)n2)ncc1F [Compound 128, 5-fluoro-2-(5-(isoxazol-3-yl)-1-(3,3,4,4,4-pentafluorobutyl)-1H-pyrazol-3-yl)pyrimidin-4(3H)-one]
6 | > 1000 | CC(=O)c1cc(-c2nncc(O)n2)nn1Cc1ccccc1F [Compound 201]
7 | < 100 | CC(C)(C)OC(=O)C[C@H]1C[C@@H](CCNc2nc(-c3cc(-c4ccon4)n(Cc4ccccc4F)n3)ncc2F)OC(C)(C)O1 [Compound 132]
8 | < 100 | COC(=O)CCN(C)c1nc(-c2cc(-c3ccon3)n(Cc3ccccc3F)n2)ncc1F [Compound 172, methyl 3-((5-fluoro-2-(1-(2-fluorobenzyl)-5-(isoxazol-3-yl)-1H-pyrazol-3-yl)pyrimidin-4-yl)(methyl)amino)propanoate]
9 | < 100 | O[C@@H]1CN(c2nc(-c3cc(-c4ccon4)n(Cc4ccccc4F)n3)ncc2F)C[C@H]1O (racemic) [Compound 167, trans-1-(5-fluoro-2-(1-(2-fluorobenzyl)-5-(isoxazol-3-yl)-1H-pyrazol-3-yl)pyrimidin-4-yl)pyrrolidine-3,4-diol]
10 | < 100 | COC(=O)CCCNc1nc(-c2cc(-c3ccon3)n(Cc3ccccc3F)n2)ncc1F [Compound 174, methyl 4-((5-fluoro-2-(1-(2-fluorobenzyl)-5-(isoxazol-3-yl)-1H-pyrazol-3-yl)pyrimidin-4-yl)amino)butanoate]
11 | < 100 | OCCCCNc1nc(-c2cc(-c3ccon3)n(Cc3ccccc3F)n2)ncc1F [Compound 176, 4-((5-fluoro-2-(1-(2-fluorobenzyl)-5-(isoxazol-3-yl)-1H-pyrazol-3-yl)pyrimidin-4-yl)amino)butan-1-ol]
12 | < 100 | COC(=O)C1CCN(c2nc(-c3cc(-c4ccon4)n(Cc4ccccc4F)n3)ncc2F)CC1 [Compound 171, methyl 1-(5-fluoro-2-(1-(2-fluorobenzyl)-5-(isoxazol-3-yl)-1H-pyrazol-3-yl)pyrimidin-4-yl)piperidine-4-carboxylate]
13 | > 1000 | Oc1nc(-c2cc(-c3ccon3)n(Cc3ccno3)n2)ncc1F [Compound 211]
14 | 100 to 1000 | CCOC(=O)C(C)(C)c1nnc(-c2cc(-c3ccon3)n(Cc3ccccc3F)n2)nc1O [Compound 191]
15 | > 1000 | Oc1nc(-c2cc(-c3ccon3)n(CC(F)(F)F)n2)ncc1F [Compound 214]
16 | 100 to 1000 | Oc1nc(-c2cc(-c3ccon3)n(Cc3ccc(F)cc3)n2)ncc1F [Compound 213]
17 | 100 to 1000 | O=C(O)C[C@H](O)C[C@H](O)CCNc1nc(-c2cc(-c3ccon3)n(Cc3ccccc3F)n2)ncc1F [Compound 134, (3R,5R)-7-((5-fluoro-2-(1-(2-fluorobenzyl)-5-(isoxazol-3-yl)-1H-pyrazol-3-yl)pyrimidin-4-yl)amino)-3,5-dihydroxyheptanoic acid]
18 | 100 to 1000 | CC(=O)c1cc(-c2ncc(F)c(NCC(F)(F)F)n2)nn1Cc1ccccc1F [Compound 204]
19 | 100 to 1000 | Cc1ccc(Cn2nc(-c3ncc(F)c(O)n3)cc2-c2ccon2)c(F)c1 [Compound 208]

Row | EC50 [nM] | Compound
20 | 100 to 1000 | Nc1nc(-c2cc(-c3ccon3)n(Cc3ncccc3F)n2)ncc1F [Compound 146]
21 | > 1000 | Oc1nc(-c2cc(-c3ccon3)n(Cc3ncccn3)n2)ncc1F [Compound 215]
22 | > 1000 | Fc1cnc(-c2cc(-c3ccon3)n(Cc3cccc(F)c3F)n2)nc1 [Compound 142]
23 | 100 to 1000 | Oc1nc(-c2cc(-c3ccon3)n(Cc3cccc(F)c3)n2)ncc1F [Compound 197]
24 | 100 to 1000 | Cc1cc(Cn2nc(-c3ncc(F)c(O)n3)cc2-c2ccon2)on1 [Compound 190]
25 | < 100 | O=c1[nH]c(-c2cc(-c3ccsn3)n(Cc3ccccc3F)n2)ncc1F [Compound 111]
26 | < 100 | O[C@@H]1CN(c2nc(-c3cc(-c4ccon4)n(Cc4ccccc4F)n3)ncc2F)C[C@@H]1O [Compound 169, cis-1-(5-fluoro-2-(1-(2-fluorobenzyl)-5-(isoxazol-3-yl)-1H-pyrazol-3-yl)pyrimidin-4-yl)pyrrolidine-3,4-diol]
27 | > 1000 | Oc1nc(-c2cc(-c3ccon3)n(Cc3ncccc3F)n2)ncc1F [Compound 143, 5-fluoro-2-(1-((3-fluoropyridin-2-yl)methyl)-5-(isoxazol-3-yl)-1H-pyrazol-3-yl)pyrimidin-4(3H)-one]
28 | < 100 | Cc1ccc(Cn2nc(-c3ncc(F)c(O)n3)cc2-c2ccon2)cc1 [Compound 185]
29 | < 100 | NCC(=O)OCCCCNc1nc(-c2cc(-c3ccon3)n(Cc3ccccc3F)n2)ncc1F [Compound 178, 4-((5-fluoro-2-(1-(2-fluorobenzyl)-5-(isoxazol-3-yl)-1H-pyrazol-3-yl)pyrimidin-4-yl)amino)butyl 2-aminoacetate]
30 | 100 to 1000 | OC(CNc1nc(-c2cc(-c3ncco3)n(Cc3ccccc3F)n2)ncc1F)(C(F)(F)F)C(F)(F)F [Compound 141]
31 | > 1000 | Oc1nc(-c2cc(-c3ccon3)n(Cc3cncnc3)n2)ncc1F [Compound 216]
32 | < 100 | NCC(=O)OC1CCN(c2nc(-c3cc(-c4ccon4)n(Cc4ccccc4F)n3)ncc2F)CC1 [Compound 173, 1-(5-fluoro-2-(1-(2-fluorobenzyl)-5-(isoxazol-3-yl)-1H-pyrazol-3-yl)pyrimidin-4-yl)piperidin-4-yl 2-aminoacetate]
33 | < 100 | Cc1ccc(Cn2nc(-c3ncc(F)c(O)n3)cc2-c2ccon2)cc1F [Compound 188]
34 | < 100 | COC(=O)CCCCNc1nc(-c2cc(-c3ccon3)n(Cc3ccccc3F)n2)ncc1F [Compound 175, methyl 5-((5-fluoro-2-(1-(2-fluorobenzyl)-5-(isoxazol-3-yl)-1H-pyrazol-3-yl)pyrimidin-4-yl)amino)pentanoate]
35 | > 1000 | Fc1cnc(-c2cc(-c3ccon3)n(Cc3ncccc3F)n2)nc1 [Compound 144]
36 | > 1000 | Oc1nc(-c2cc(-c3ccon3)n(Cc3cccnc3)n2)ncc1F [Compound 189]
37 | > 1000 | CCOC(=O)C(C)(C)c1nc(-c2cc(-c3ccon3)n(Cc3ccccc3F)n2)nnc1O [Compound 192]
38 | > 1000 | CCOC(=O)C(C)(C)c1nnc(-c2cc(-c3ccon3)n(Cc3ccccc3F)n2)nc1N [Compound 209]
